Source: patent US12662491B2 (Redona Therapeutics, Inc., priority 2020, dated 2026)

These compounds were tested against T1, Zcchc11 enzyme (Homo sapiens, UniProt Q5TAX3) (assay: TUTase assay (Zcchc11 assay, Lin28a-dependent polyuridylation of pre-let-7)). Conditions: Lin28a-dependent Zcchc11 (Z11) TUTase activity; read-out: Potency Lin28a-dep Z11 IC50.
T1 construct: made in house; host or cells: HEK293 cells (Zcchc11); E. coli Rosetta II (LIN28A)
T1 sequence (Q5TAX3 212-1420): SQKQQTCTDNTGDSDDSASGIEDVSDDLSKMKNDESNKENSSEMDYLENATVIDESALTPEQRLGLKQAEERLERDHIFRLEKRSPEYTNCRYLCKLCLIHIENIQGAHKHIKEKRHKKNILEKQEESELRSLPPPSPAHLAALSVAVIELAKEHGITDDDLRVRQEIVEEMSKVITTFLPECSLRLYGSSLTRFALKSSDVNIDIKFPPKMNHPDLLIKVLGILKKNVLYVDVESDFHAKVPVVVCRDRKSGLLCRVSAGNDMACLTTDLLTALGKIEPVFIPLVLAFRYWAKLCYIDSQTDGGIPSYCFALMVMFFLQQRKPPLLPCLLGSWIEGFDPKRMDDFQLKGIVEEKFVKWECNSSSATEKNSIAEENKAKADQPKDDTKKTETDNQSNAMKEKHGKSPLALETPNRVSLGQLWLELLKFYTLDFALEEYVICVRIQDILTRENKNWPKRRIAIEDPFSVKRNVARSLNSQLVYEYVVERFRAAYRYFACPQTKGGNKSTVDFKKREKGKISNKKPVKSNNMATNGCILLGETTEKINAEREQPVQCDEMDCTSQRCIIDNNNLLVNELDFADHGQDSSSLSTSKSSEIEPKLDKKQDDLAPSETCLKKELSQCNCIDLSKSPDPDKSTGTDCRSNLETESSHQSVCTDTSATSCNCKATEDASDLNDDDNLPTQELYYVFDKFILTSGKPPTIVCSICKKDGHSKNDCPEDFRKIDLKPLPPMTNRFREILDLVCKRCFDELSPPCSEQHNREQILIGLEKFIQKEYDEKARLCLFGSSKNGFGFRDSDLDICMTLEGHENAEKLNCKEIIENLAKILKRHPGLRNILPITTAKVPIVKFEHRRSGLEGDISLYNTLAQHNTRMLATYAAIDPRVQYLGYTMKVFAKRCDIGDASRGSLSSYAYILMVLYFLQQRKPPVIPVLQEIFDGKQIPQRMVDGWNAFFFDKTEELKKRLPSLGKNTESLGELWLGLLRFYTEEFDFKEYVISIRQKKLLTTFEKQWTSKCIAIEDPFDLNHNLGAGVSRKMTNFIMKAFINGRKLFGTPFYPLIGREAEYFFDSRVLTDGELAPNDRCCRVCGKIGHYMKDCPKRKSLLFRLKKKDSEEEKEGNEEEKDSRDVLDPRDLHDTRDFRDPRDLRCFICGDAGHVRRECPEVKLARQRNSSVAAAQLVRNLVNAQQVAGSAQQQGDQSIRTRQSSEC
Assay type: biochemical
Outline: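 LIN28A (10 nM) in pH 7.3 HEPES/KCl/MgCl2/DTT buffer was mixed with serially diluted compound, then 0.2 nM truncated human Zcchc11 and 2 nM labeled pre-let-7 were added for 30 min at room temperature. UTP (5 uM) and quench probe (4 nM) then started the reaction. Linear early rates gave IC50 values.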

CN(C)C1CN(c2ccc(-n3cc(C(=O)O)c(=O)c4cc(Cl)c(N5CCC[C@@H]5COc5nc6nc[nH]c6cc5Cl)cc43)cn2)C1 [Compound 204, (R)-6-chloro-7-(2-(((6-chloro-1H-imidazo [4,5-b]pyridin-5-yl)oxy)methyl)pyrrolidin-1-yl)-1-(6-(3-(dimethyl-amino)azetidin-1-yl)pyridin-3-yl)-4-oxo-1,4-dihydro-quinoline-3-carboxylic acid] and CN(C)C1CN(c2ccc(-n3cc(C(=O)O)c(=O)c4cc(F)c(N5CCC[C@@H]5COc5ncccc5Cl)cc43)cn2)C1 [Compound 222, 7-[(2R)-2-[[(3-chloropyridin-2-yl)oxy]methyl]pyrrolidin-1-yl]-1-[6-[3-(dimethyl-amino)azetidin-1-yl]pyridin-3-yl]-6-fluoro-4-oxoquinoline-3-carboxylic acid] cannot be ordered by IC50: no more than 1000 nM for the first, no more than 1000 nM for the second.

COc1ccc(Cl)c(OC[C@H]2CCCN2c2cc3c(cc2C)c(=O)c(C(=O)O)cn3-c2ccc(N3CC(N(C)C)C3)nc2)n1 [Compound 206, (R)-7-(2-(((3-chloro-6-methoxy-pyridin-2-yl)oxy)methyl)pyrrolidin-1-yl)-1-(6-(3-(dimethyl-amino)azetidin-1-yl)pyridin-3-yl)-6-methyl-4-oxo-1,4-dihydro-quinoline-3-carboxylic acid] and CO/N=C1/CCN(c2cc3c(cc2Cl)c(=O)c(C(=O)O)cn3-c2ccc(N3CC(N(C)C)C3)nc2)C1COc1nc(OC)ccc1Cl (stereo not drawn) [Compound 232, (Z)-6-chloro-7-(2-(((3-chloro-6-methoxy-pyridin-2-yl)oxy)methyl)-3-(methoxyimino)pyrrolidin-1-yl)-1-(6-(3-(dimethyl-amino)azetidin-1-yl)pyridin-3-yl)-4-oxo-1,4-dihydro-quinoline-3-carboxylic acid] cannot be ordered by IC50: no more than 1000 nM for the first, no more than 1000 nM for the second.

CN(C)CCn1cc(-n2cc(C(=O)O)c(=O)c3cc(C#N)c(N4CCC[C@@H]4COc4ncccc4Cl)cc32)cn1 [Compound 207] and COCCN(C)C1CN(c2ccc(-n3cc(C(=O)O)c(=O)c4cc(C#N)c(N5CCC[C@@H]5COc5ncccc5Cl)cc43)cn2)C1 [Compound 218, 7-[(2R)-2-[[(3-chloropyridin-2-yl)oxy]methyl]pyrrolidin-1-yl]-6-cyano-1-(6-[3-[(2-methoxyethyl) (methyl)amino]azetidin-1-yl]pyridin-3-yl)-4-oxoquinoline-3-carboxylic acid] cannot be ordered by IC50: no more than 1000 nM for the first, no more than 1000 nM for the second.

Cc1cccnc1OC[C@H]1CCCN1c1cc2c(cc1F)c(=O)c(C(=O)O)cn2-c1ccc(N)nc1 [Compound 208, (R)-1-(6-aminopyridin-3-yl)-6-fluoro-7-(2-(((3-methylpyridin-2-yl)oxy)methyl)pyrrolidin-1-yl)-4-oxo-1,4-dihydro-quinoline-3-carboxylic acid] and Cc1cccnc1OC[C@H]1CCCN1c1cc2c(cc1Cl)c(=O)c(C(=O)O)cn2-c1ccc(N)nc1 [Compound 210, (R)-1-(6-aminopyridin-3-yl)-6-chloro-7-(2-(((3-methylpyridin-2-yl)oxy)methyl)pyrrolidin-1-yl)-4-oxo-1,4-dihydro-quinoline-3-carboxylic acid] cannot be ordered by IC50: no more than 1000 nM for the first, no more than 1000 nM for the second.

Nc1cc(-n2cc(C(=O)O)c(=O)c3cc(Cl)c(N4CCC[C@@H]4COc4ncccc4Cl)cc32)ccn1 [Compound 209, (R)-1-(2-aminopyridin-4-yl)-6-chloro-7-(2-(((3-chloropyridin-2-yl)oxy)methyl)pyrrolidin-1-yl)-4-oxo-1,4-dihydro-quinoline-3-carboxylic acid] and Nc1ccc(-n2cc(C(=O)O)c(=O)c3cc(Cl)c(N4CCC[C@@H]4COc4ncccc4F)cc32)cn1 [Compound 214, 1-(6-Aminopyridin-3-yl)-6-chloro-7-[(2R)-2-{[(3-fluoropyridin-2-yl)oxy]methyl}pyrrolidin-1-yl]-4-oxoquinoline-3-carboxylic acid] cannot be ordered by IC50: no more than 1000 nM for the first, no more than 1000 nM for the second.

O=C(O)c1cn(-c2cnccn2)c2cc(N3CCCCC3COc3ccccn3)c(Cl)cc2c1=O (stereo not drawn) [Compound 211, 6-Chloro-4-oxo-1-(pyrazin-2-yl)-7-{2-[(pyridin-2-yloxy)methyl]piperidin-1-yl}quinoline-3-carboxylic acid] and Cc1cccnc1OC[C@H]1CCCN1c1cc2c(cc1Cl)c(=O)c(C(=O)O)cn2-c1cnccn1 [Compound 212, 6-Chloro-7-[(2R)-2-{[(3-methylpyridin-2-yl)oxy]methyl}pyrrolidin-1-yl]-4-oxo-1-(pyrazin-2-yl)quinoline-3-carboxylic acid] cannot be ordered by IC50: 1000 to 10000 nM for the first, no more than 1000 nM for the second.

O=C(O)c1cn(-c2cnccn2)c2cc(N3CCC[C@@H]3COc3ncccc3F)c(Cl)cc2c1=O [Compound 213, 6-Chloro-7-[(2R)-2-{[(3-fluoropyridin-2-yl)oxy]methyl}pyrrolidin-1-yl]-4-oxo-1-(pyrazin-2-yl)quinoline-3-carboxylic acid] and N#Cc1cc2c(=O)c(C(=O)O)cn(-c3ccc(N)nc3)c2cc1N1CCC[C@@H]1COc1ncccc1F [Compound 217] cannot be ordered by IC50: no more than 1000 nM for the first, no more than 1000 nM for the second.

O=C(O)c1cn(-c2ccc3c(c2F)CCN3)c2cc(N3CCC[C@@H]3COc3ccccn3)c(F)cc2c1=O [Compound 216, 6-Fluoro-1-(4-fluoro-2,3-dihydro-1H-indol-5-yl)-4-oxo-7-[(2R)-2-[(pyridin-2-yloxy)methyl]pyrrolidin-1-yl]quinoline-3-carboxylic acid] and CN(C)C1CN(c2ccc(-n3cc(C(=O)O)c(=O)c4cc(Cl)c(N5CCC5COc5ccccn5)cc43)cn2)C1 (stereo not drawn) [Compound 219, 6-chloro-1-[6-[3-(dimethyl-amino)azetidin-1-yl]pyridin-3-yl]-4-oxo-7-[2-[(pyridin-2-yloxy)methyl]azetidin-1-yl]quinoline-3-carboxylic acid] cannot be ordered by IC50: no more than 1000 nM for the first, 1000 to 10000 nM for the second.

First: CN(C)C1CN(c2ccc(-n3cc(C(=O)O)c(=O)c4cc(C#N)c(N5C(=O)CC[C@@H]5COc5ncccc5Cl)cc43)cn2)C1 [Compound 220, 7-[(2R)-2-[[(3-chloropyridin-2-yl)oxy]methyl]-5-oxopyrrolidin-1-yl]-6-cyano-1-[6-[3-(dimethyl-amino)azetidin-1-yl]pyridin-3-yl]-4-oxoquinoline-3-carboxylic acid]
Second: CN(C)C1CN(c2ccc(-n3cc(C(=O)O)c(=O)c4cc(Cl)c(N5CC6(CCC6)CC5COc5ncccc5Cl)cc43)cn2)C1 (stereo not drawn) [Compound 226, 6-Chloro-7-(7-(((3-chloropyridin-2-yl)oxy)methyl)-6-azaspiro [3.4]octan-6-yl)-1-(6-(3-(dimethyl-amino)azetidin-1-yl)pyridin-3-yl)-4-oxo-1,4-dihydro-quinoline-3-carboxylic acid compound with formic acid (1:1)]
The IC50 of the first is higher: 10000 to 50000 nM for the first, no more than 1000 nM for the second.

CN(C)C1CN(c2ccc(-n3cc(C(=O)O)c(=O)c4cc(Cl)c(N5CC6CC5(COc5ncccc5Cl)C6)cc43)cn2)C1 [Compound 221, 6-chloro-7-(1-[[(3-chloropyridin-2-yl)oxy]methyl]-2-azabicyclo [2.1.1]hexan-2-yl)-1-[6-[3-(dimethyl-amino)azetidin-1-yl]pyridin-3-yl]-4-oxoquinoline-3-carboxylic acid] and COc1ccc(Cl)c(OCC2N(c3cc4c(cc3Cl)c(=O)c(C(=O)O)cn4-c3cnnc(N)c3)CCC2(C)C)n1 (stereo not drawn) [Compound 228, 1-(6-Amino-pyridazin-4-yl)-6-chloro-7-(2-(((3-chloro-6-methoxy-pyridin-2-yl)oxy)methyl)-3,3-dimethyl-pyrrolidin-1-yl)-4-oxo-1,4-dihydro-quinoline-3-carboxylic acid] cannot be ordered by IC50: 1000 to 10000 nM for the first, no more than 1000 nM for the second.

COc1ccc(Cl)c(OCC2N(c3cc4c(cc3Cl)c(=O)c(C(=O)O)cn4-c3cc(N)cnn3)CCC2(C)C)n1 (stereo not drawn) [Compound 229, 1-(5-Amino-pyridazin-3-yl)-6-chloro-7-(2-(((3-chloro-6-methoxy-pyridin-2-yl)oxy)methyl)-3,3-dimethyl-pyrrolidin-1-yl)-4-oxo-1,4-dihydro-quinoline-3-carboxylic acid] was tested, and the IC50 was no more than 1000 nM.
